According to patent US20250049676A1, “ANTIMICROBIAL SYSTEM WITH INDOLE ALKALOID AND PHENOLIC ACID AND COMPOSITIONS COMPRISING THEM” (Conopco, Inc., d/b/a UNILEVER, priority 2021, published 2025):
Like-named read-outs stand apart in the source and are kept apart here.

Columns and labels:
[1] = system: Enterobacter gergoviae ATCC 33028; assay: Liquid broth assay (MIC and checkerboard), Enterobacter gergoviae; type: cell-based; conditions: for MIC: Pluralibacter gergoviae, read-out: minimal inhibitory concentration (MIC); for concentration needed in combination to achieve the inhibitory effect: gramine with syringic acid, concentration of the named component in the mixture
Source text: (§1) Naturally derived antimicrobial systems were made, as shown below by combining the indole alkaloid and phenolic acid. Two pools were set up and each pool contained 1 organism. The strains involved were Enterobacter gergoviae ATCC 33028 of the family Pluralibacter gergoviae, a Gram-negative and Aspergillus brasiliensis ATCC 16404. FIC test range was 16 times greater than the projected MIC for each sample.
(§2) The differing behaviors of inhibitory antimicrobials in isolation and mixtures have been widely explored using the concept of the Fractional Concentration and Fractional Inhibitory Concentration (FIC). See for instance JRW Lambert and R Lambert, J. Appl. Microbiol 95, 734 (2003); T. Jadavji, CG Prober and R Cheung, Antibacterial Agents and Chemotherapy 26, 91 (1984), and WO 2004/006876. MIC is the minimum inhibitory concentration a component prevents visible growth of a microbe. The FC and FIC parameters can be defined as follows:
(§3) FC (Component A)=Concentration of Component A tested in the mixture/MIC (Component A tested as a single active)
(§4) FIC (component a)=MIC (component a tested in the mixture)/MIC (component a tested as a single active)
(§5) The interactions between antimicrobials can be additive, synergistic or possibly antagonistic depending on whether the efficacy of the combination is equivalent to, greater than or less than that obtained for the same total concentration of the individual components when tested alone. These relationships can be expressed mathematically by summing the fractional MIC values for all the components present in the mixture to give the “fractional inhibitory index”:
(§6) Such that: • ΣFIC greater than 0.5 corresponds to indifferent, additive or antagonistic activity • ΣFIC less than or equal to 0.5 corresponds to synergistic activity
(§7) Liquid broth assays (MIC and checkerboard) were conducted to identify the minimum concentration(s) of individual and binary combinations of natural preservation materials. A modified methodology to ISO 20776-1:2006 was utilized for the screening as follows. Stock solutions of each preservation chemical at 200 ul/cell (or well) each and 100 ul of broth were created in separate 96-well plates. Each of the two-preservation chemical/broth mixes was then combined in a third 96 well plate at varying concentrations and then inoculated with 1-5×10^6 microorganisms and incubated at 30° C. for 24 hours, after which optical densities at OD600 nm were measured.

[2] = system: Aspergillus brasiliensis ATCC 16404; assay: Liquid broth assay (MIC and checkerboard), Aspergillus brasiliensis; type: cell-based; conditions: for MIC: Aspergillus brasiliensis; for concentration needed in combination to achieve the inhibitory effect: gramine with syringic acid, concentration of the named component in the mixture
Source text: as §1, §2, §3, §4, §5, §6, §7

| SMILES | MIC ([1]; ATCC33028, component by itself, MIC = <25% growth vs positive control, 30° C., 24 hours, OD600) [mg/mL] | concentration needed in combination to achieve the inhibitory effect [1] [mg/mL] | MIC ([2]; ATCC16404, component by itself, MIC = <25% growth vs positive control, 30° C., 24 hours, OD600, read-out: MIC) [mg/mL] | concentration needed in combination to achieve the inhibitory effect [2] | MIC ([1]; ATCC33028, 24 h) [mg/mL] | MIC ([2]; ATCC16404, 24 h) [mg/mL] |
| --- | --- | --- | --- | --- | --- | --- |
| CN(C)Cc1c[nH]c2ccccc12 [Gramine, 1-(1H-Indol-3-yl)-N,N-dimethylmethanamine] | 6.25 | 0.098 | 12.5 | 1,563 mg/ml | – | – |
| COc1cc(C(=O)O)cc(OC)c1O [Syringic Acid, 4-Hydroxy-3,5-dimethoxybenzoic acid] | – | 0.781 | – | 6.25 mg/mL | > 50 | > 50 |
